Test results reported in paper PMC12748989 (Nature Communications, 2025).

What was measured:
[1] = tested on: MDA-MB-231 cells
[2] = tested on: PBMC; conditions: 12.5 µM

Structure (SMILES)	Average (percentage cell inhibition), Dmastoparan MDA-MB231 12.5uM [1]	Average (percentage cell inhibition), Mastoparan PBMC [2]
CC[C@H](C)[C@H](N)C(=O)N[C@@H](CC(N)=O)C(=O)N[C@@H](CC(C)C)C(=O)N[C@@H](CCCCN)C(=O)N[C@@H](C)C(=O)N[C@@H](CC(C)C)C(=O)N[C@@H](C)C(=O)N[C@@H](C)C(=O)N[C@@H](CC(C)C)C(=O)N[C@@H](C)C(=O)N[C@@H](CCCCN)C(=O)N[C@@H](CCCCN)C(=O)N[C@H](C(=O)N[C@@H](CC(C)C)C(N)=O)[C@@H](C)CC [Lab Mastoparan L, reference compound]	41.709%	12.353%
CC[C@H](C)[C@H](N)C(=O)N[C@@H](CC(N)=O)C(=O)N[C@@H](CC(C)C)C(=O)N[C@@H](CCCCN)C(=O)N[C@@H](C)C(=O)N[C@@H](CC(C)C)C(=O)N[C@@H](C)C(=O)N[C@@H](C)C(=O)N[C@@H](CC(C)C)C(=O)N[C@H](C(=O)N[C@@H](CCCCN)C(=O)N[C@@H](CCCCN)C(=O)N[C@H](C(=O)N[C@@H](CC(C)C)C(N)=O)[C@@H](C)CC)[C@@H](C)CC [I10]	54.8759%	25.836%
CC[C@H](C)[C@H](N)C(=O)N[C@@H](CC(N)=O)C(=O)N[C@@H](CC(C)C)C(=O)N[C@@H](CCCCN)C(=O)N[C@@H](C)C(=O)N[C@@H](CC(C)C)C(=O)N[C@@H](C)C(=O)N[C@@H](C)C(=O)N[C@@H](CC(C)C)C(=O)N[C@@H](C)C(=O)N[C@@H](CCCCN)C(=O)N[C@@H](CCCCN)C(=O)N[C@H](C(=O)N[C@@H](CCC(N)=O)C(N)=O)[C@@H](C)CC [Q14]	0.3995%	1.109%
CC[C@H](C)[C@H](N)C(=O)N[C@@H](CC(N)=O)C(=O)N[C@@H](CC(C)C)C(=O)N[C@@H](CCCCN)C(=O)N[C@@H](C)C(=O)N[C@@H](CC(C)C)C(=O)N[C@@H](C)C(=O)N[C@@H](C)C(=O)N[C@@H](CC(C)C)C(=O)N[C@@H](C)C(=O)N[C@@H](CCCCN)C(=O)NCC(=O)N[C@H](C(=O)N[C@@H](CC(C)C)C(N)=O)[C@@H](C)CC [G12]	17.8169%	13.7945%
CC[C@H](C)[C@H](N)C(=O)N[C@@H](CC(N)=O)C(=O)N[C@H](C(=O)N[C@@H](CCCCN)C(=O)N[C@@H](C)C(=O)N[C@@H](CC(C)C)C(=O)N[C@@H](C)C(=O)N[C@@H](C)C(=O)N[C@@H](CC(C)C)C(=O)N[C@@H](C)C(=O)N[C@@H](CCCCN)C(=O)N[C@@H](CCCCN)C(=O)N[C@H](C(=O)N[C@@H](CC(C)C)C(N)=O)[C@@H](C)CC)[C@@H](C)CC [I3]	30.5933%	14.9456%
CC[C@H](C)[C@H](N)C(=O)N[C@@H](CC(N)=O)C(=O)N[C@@H](CC(C)C)C(=O)N[C@@H](CCCCN)C(=O)N[C@@H](C)C(=O)N[C@@H](CC(C)C)C(=O)N[C@@H](C)C(=O)N[C@@H](C)C(=O)N[C@@H](CC(C)C)C(=O)N[C@@H](CCC(N)=O)C(=O)N[C@@H](CCCCN)C(=O)N[C@@H](CCCCN)C(=O)N[C@H](C(=O)N[C@@H](CC(C)C)C(N)=O)[C@@H](C)CC [Q10]	6.186%	12.3938%
CC[C@H](C)[C@H](N)C(=O)N[C@@H](CC(N)=O)C(=O)N[C@@H](CC(C)C)C(=O)N[C@@H](CCCCN)C(=O)N[C@@H](C)C(=O)N[C@@H](CC(C)C)C(=O)N[C@H](C(=O)N[C@@H](C)C(=O)N[C@@H](CC(C)C)C(=O)N[C@@H](C)C(=O)N[C@@H](CCCCN)C(=O)N[C@@H](CCCCN)C(=O)N[C@H](C(=O)N[C@@H](CC(C)C)C(N)=O)[C@@H](C)CC)[C@@H](C)O [T7]	29.9324%	3.741%
CC[C@H](C)[C@H](N)C(=O)N[C@@H](CC(N)=O)C(=O)N[C@@H](CC(C)C)C(=O)N[C@@H](CCCCN)C(=O)N[C@@H](C)C(=O)N[C@@H](CC(C)C)C(=O)N[C@@H](C)C(=O)N[C@@H](C)C(=O)N[C@H](C(=O)N[C@@H](C)C(=O)N[C@@H](CCCCN)C(=O)N[C@@H](CCCCN)C(=O)N[C@H](C(=O)N[C@@H](CC(C)C)C(N)=O)[C@@H](C)CC)[C@@H](C)CC [I9]	25.9927%	12.8506%
CC[C@H](C)[C@H](N)C(=O)N[C@@H](CC(N)=O)C(=O)N[C@@H](CC(C)C)C(=O)N[C@@H](CCCCN)C(=O)N[C@@H](C)C(=O)N[C@@H](CC(C)C)C(=O)N[C@@H](C)C(=O)N[C@@H](C)C(=O)N[C@@H](CC(C)C)C(=O)N[C@@H](C)C(=O)N[C@@H](Cc1ccc(O)cc1)C(=O)N[C@@H](CCCCN)C(=O)N[C@H](C(=O)N[C@@H](CC(C)C)C(N)=O)[C@@H](C)CC [Y11]	42.1135%	16.0926%
CC[C@H](C)[C@H](N)C(=O)N[C@@H](CC(N)=O)C(=O)N[C@@H](CC(C)C)C(=O)N[C@@H](CCCCN)C(=O)N[C@@H](C)C(=O)N[C@@H](CC(C)C)C(=O)N[C@@H](C)C(=O)N[C@@H](C)C(=O)N[C@@H](Cc1ccc(O)cc1)C(=O)N[C@@H](C)C(=O)N[C@@H](CCCCN)C(=O)N[C@@H](CCCCN)C(=O)N[C@H](C(=O)N[C@@H](CC(C)C)C(N)=O)[C@@H](C)CC [Y9]	27.288%	11.8226%
CC[C@H](C)[C@H](N)C(=O)N[C@@H](CC(N)=O)C(=O)N[C@@H](CC(C)C)C(=O)N[C@@H](CCCCN)C(=O)N[C@@H](CCC(=O)O)C(=O)N[C@@H](CC(C)C)C(=O)N[C@@H](C)C(=O)N[C@@H](C)C(=O)N[C@@H](CC(C)C)C(=O)N[C@@H](C)C(=O)N[C@@H](CCCCN)C(=O)N[C@@H](CCCCN)C(=O)N[C@H](C(=O)N[C@@H](CC(C)C)C(N)=O)[C@@H](C)CC [E5]	15.4865%	3.135%
CC[C@H](C)[C@H](N)C(=O)N[C@@H](CC(N)=O)C(=O)N[C@@H](CC(C)C)C(=O)N1CCC[C@H]1C(=O)N[C@@H](C)C(=O)N[C@@H](CC(C)C)C(=O)N[C@@H](C)C(=O)N[C@@H](C)C(=O)N[C@@H](CC(C)C)C(=O)N[C@@H](C)C(=O)N[C@@H](CCCCN)C(=O)N[C@@H](CCCCN)C(=O)N[C@H](C(=O)N[C@@H](CC(C)C)C(N)=O)[C@@H](C)CC [P4]	10.9719%	-6.014%
CC[C@H](C)[C@H](N)C(=O)N[C@@H](CC(N)=O)C(=O)N[C@@H](CCCCN)C(=O)N[C@@H](CCCCN)C(=O)N[C@@H](C)C(=O)N[C@@H](CC(C)C)C(=O)N[C@@H](C)C(=O)N[C@@H](C)C(=O)N[C@@H](CC(C)C)C(=O)N[C@@H](C)C(=O)N[C@@H](CCCCN)C(=O)N[C@@H](CCCCN)C(=O)N[C@H](C(=O)N[C@@H](CC(C)C)C(N)=O)[C@@H](C)CC [K3]	21.542%	-9.841%
CC[C@H](C)[C@H](N)C(=O)N[C@@H](CC(N)=O)C(=O)N[C@@H](CC(C)C)C(=O)N[C@@H](CCCCN)C(=O)N[C@H](C(=O)N[C@@H](CC(C)C)C(=O)N[C@@H](C)C(=O)N[C@@H](C)C(=O)N[C@@H](CC(C)C)C(=O)N[C@@H](C)C(=O)N[C@@H](CCCCN)C(=O)N[C@@H](CCCCN)C(=O)N[C@H](C(=O)N[C@@H](CC(C)C)C(N)=O)[C@@H](C)CC)C(C)C [V5]	36.2551%	6.235%
CC[C@H](C)[C@H](N)C(=O)N[C@@H](CC(N)=O)C(=O)N[C@@H](CC(C)C)C(=O)N[C@@H](CCCCN)C(=O)NCC(=O)N[C@@H](CC(C)C)C(=O)N[C@@H](C)C(=O)N[C@@H](C)C(=O)N[C@@H](CC(C)C)C(=O)N[C@@H](C)C(=O)N[C@@H](CCCCN)C(=O)N[C@@H](CCCCN)C(=O)N[C@H](C(=O)N[C@@H](CC(C)C)C(N)=O)[C@@H](C)CC [G5]	39.6978%	4.313%
CC[C@H](C)[C@H](N)C(=O)N[C@@H](CC(N)=O)C(=O)N[C@@H](CC(C)C)C(=O)N[C@@H](Cc1ccc(O)cc1)C(=O)N[C@@H](C)C(=O)N[C@@H](CC(C)C)C(=O)N[C@@H](C)C(=O)N[C@@H](C)C(=O)N[C@@H](CC(C)C)C(=O)N[C@@H](C)C(=O)N[C@@H](CCCCN)C(=O)N[C@@H](CCCCN)C(=O)N[C@H](C(=O)N[C@@H](CC(C)C)C(N)=O)[C@@H](C)CC [Y4]	34.4143%	3.789%
CC[C@H](C)[C@H](N)C(=O)N[C@@H](CC(N)=O)C(=O)N[C@@H](CC(C)C)C(=O)N[C@@H](CCCCN)C(=O)N[C@@H](C)C(=O)N[C@@H](CC(C)C)C(=O)N[C@@H](C)C(=O)N[C@@H](C)C(=O)N[C@@H](CC(C)C)C(=O)N[C@@H](C)C(=O)N[C@@H](CCCCN)C(=O)N[C@@H](CCCCN)C(=O)N[C@@H](CCCNC(=N)N)C(=O)N[C@@H](CC(C)C)C(N)=O [R13]	13.2975%	-5.395%
CC[C@H](C)[C@H](N)C(=O)N[C@@H](CC(N)=O)C(=O)N[C@@H](CC(C)C)C(=O)N[C@@H](CCCCN)C(=O)N[C@@H](C)C(=O)N[C@@H](CC(C)C)C(=O)N[C@@H](C)C(=O)N[C@H](C(=O)N[C@@H](CC(C)C)C(=O)N[C@@H](C)C(=O)N[C@@H](CCCCN)C(=O)N[C@@H](CCCCN)C(=O)N[C@H](C(=O)N[C@@H](CC(C)C)C(N)=O)[C@@H](C)CC)[C@@H](C)O [T8]	35.9719%	11.6569%
CC[C@H](C)[C@H](N)C(=O)N[C@@H](CC(N)=O)C(=O)N[C@@H](CC(C)C)C(=O)N[C@@H](CCCCN)C(=O)N[C@@H](Cc1c[nH]cn1)C(=O)N[C@@H](CC(C)C)C(=O)N[C@@H](C)C(=O)N[C@@H](C)C(=O)N[C@@H](CC(C)C)C(=O)N[C@@H](C)C(=O)N[C@@H](CCCCN)C(=O)N[C@@H](CCCCN)C(=O)N[C@H](C(=O)N[C@@H](CC(C)C)C(N)=O)[C@@H](C)CC [H5]	26.5106%	3.516%
